Reference: ChEMBL document CHEMBL5653631, “A Potent and Selective ULK1 Inhibitor Suppresses Autophagy and Sensitizes Cancer Cells to Nutrient Stress” (iScience, 2018)
One block for each compound: values may come before it.

Assays:
[1] = target: Dual specificity protein kinase CLK3 (Homo sapiens) (UniProt P49761); experiment: Inhibition of human recombinant CLK3 at 500 nM related to control ULK1
[2] = target: DNA-PK/Ku70/Ku85 (Homo sapiens) (UniProt P78527+P12956+P13010); experiment: Inhibition of human recombinant DNAPK at 500 nM in presence of ATP by radiometric assay relative to control; assay type: protein-complex assay
[3] = target: Ephrin type-A receptor 5 (Homo sapiens) (UniProt P54756); experiment: Inhibition of human recombinant EphA5 at 500 nM related to control ULK1
[4] = target: T1, Mitogen-activated protein kinase kinase kinase 3 (Homo sapiens) (UniProt Q99759); experiment: Inhibition of human recombinant MAP3K3 at 15 nM related to control ULK1
T1 sequence (whole entry): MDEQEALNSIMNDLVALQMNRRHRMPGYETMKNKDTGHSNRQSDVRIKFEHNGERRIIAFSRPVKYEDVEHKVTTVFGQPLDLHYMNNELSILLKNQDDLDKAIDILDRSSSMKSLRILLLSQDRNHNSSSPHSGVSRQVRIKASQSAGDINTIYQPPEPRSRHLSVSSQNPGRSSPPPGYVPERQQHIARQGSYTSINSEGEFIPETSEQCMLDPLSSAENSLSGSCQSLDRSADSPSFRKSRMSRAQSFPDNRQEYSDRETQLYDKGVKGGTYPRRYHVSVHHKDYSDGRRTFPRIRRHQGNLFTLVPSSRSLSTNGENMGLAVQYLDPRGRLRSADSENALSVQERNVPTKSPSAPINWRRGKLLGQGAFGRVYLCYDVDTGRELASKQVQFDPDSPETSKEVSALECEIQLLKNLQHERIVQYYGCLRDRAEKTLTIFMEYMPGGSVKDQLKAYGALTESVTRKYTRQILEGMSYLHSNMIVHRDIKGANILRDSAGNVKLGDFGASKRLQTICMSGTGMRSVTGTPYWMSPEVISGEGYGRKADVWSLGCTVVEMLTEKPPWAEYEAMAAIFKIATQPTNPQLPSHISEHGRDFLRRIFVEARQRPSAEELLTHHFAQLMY

[5] = target: T2, Ephrin type-A receptor 8 (Homo sapiens) (UniProt P29322); experiment: Inhibition of human recombinant EphA8 at 15 nM in presence of ATP by radiometric assay relative to control
T2 sequence (whole entry): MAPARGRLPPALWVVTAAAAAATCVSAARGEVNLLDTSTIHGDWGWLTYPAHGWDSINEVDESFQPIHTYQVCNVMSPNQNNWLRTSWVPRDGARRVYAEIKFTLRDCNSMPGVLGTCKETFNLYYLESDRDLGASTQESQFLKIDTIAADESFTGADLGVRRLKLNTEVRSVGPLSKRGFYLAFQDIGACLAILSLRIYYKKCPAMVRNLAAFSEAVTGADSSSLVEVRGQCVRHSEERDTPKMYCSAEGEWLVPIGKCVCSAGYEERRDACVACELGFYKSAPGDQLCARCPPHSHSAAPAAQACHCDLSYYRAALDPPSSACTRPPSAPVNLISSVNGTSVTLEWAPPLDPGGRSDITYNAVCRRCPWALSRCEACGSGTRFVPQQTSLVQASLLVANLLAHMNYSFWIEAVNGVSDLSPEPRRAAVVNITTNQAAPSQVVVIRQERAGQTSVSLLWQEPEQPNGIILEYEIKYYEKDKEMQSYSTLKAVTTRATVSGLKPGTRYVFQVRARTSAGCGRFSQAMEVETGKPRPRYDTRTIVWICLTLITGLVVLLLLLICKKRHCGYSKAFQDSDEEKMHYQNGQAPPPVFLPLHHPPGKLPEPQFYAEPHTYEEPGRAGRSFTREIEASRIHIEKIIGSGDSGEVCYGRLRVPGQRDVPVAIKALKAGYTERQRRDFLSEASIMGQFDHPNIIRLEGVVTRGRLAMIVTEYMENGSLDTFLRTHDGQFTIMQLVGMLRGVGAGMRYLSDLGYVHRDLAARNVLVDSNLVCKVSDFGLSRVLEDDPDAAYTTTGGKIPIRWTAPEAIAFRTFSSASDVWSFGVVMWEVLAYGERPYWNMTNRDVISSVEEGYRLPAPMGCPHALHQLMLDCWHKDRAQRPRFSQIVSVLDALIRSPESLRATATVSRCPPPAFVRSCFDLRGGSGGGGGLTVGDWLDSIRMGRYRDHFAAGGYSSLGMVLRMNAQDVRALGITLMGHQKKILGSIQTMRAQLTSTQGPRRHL

[6] = target: Death-associated protein kinase 1 (Homo sapiens) (UniProt P53355); experiment: Inhibition of human recombinant DAPK1 at 15 nM related to control ULK1
[7] = target: Tau-tubulin kinase 1 (Homo sapiens) (UniProt Q5TCY1); experiment: Inhibition of human recombinant TTBK1 at 15 nM related to control ULK1
[8] = target: Cyclin-dependent kinase 4 (Homo sapiens) (UniProt P11802); experiment: Inhibition of human recombinant CDK4 at 15 nM related to control ULK1
[9] = target: Dual specificity tyrosine-phosphorylation-regulated kinase 1B (Homo sapiens) (UniProt Q9Y463); experiment: Inhibition of human recombinant DYRK1B at 15 nM related to control ULK1
[10] = target: cAMP-dependent protein kinase catalytic subunit beta (Homo sapiens) (UniProt P22694); experiment: Inhibition of human recombinant PKACbeta at 15 nM related to control ULK1
[11] = target: High affinity nerve growth factor receptor (Homo sapiens) (UniProt P04629); experiment: Inhibition of human recombinant TRKA at 15 nM related to control ULK1
[12] = target: SRSF protein kinase 1 (Homo sapiens) (UniProt Q96SB4); experiment: Inhibition of human recombinant SRPK1 at 40 nM related to control ULK1
[13] = target: Serine/threonine-protein kinase 32B (Homo sapiens) (UniProt Q9NY57); experiment: Inhibition of human recombinant YANK2 at 40 nM related to control ULK1
[14] = target: NT-3 growth factor receptor (Homo sapiens) (UniProt Q16288); experiment: Inhibition of human recombinant TRKC at 40 nM related to control ULK1

Cyclin-dependent kinase 4 (Homo sapiens), sequence (P11802 whole entry): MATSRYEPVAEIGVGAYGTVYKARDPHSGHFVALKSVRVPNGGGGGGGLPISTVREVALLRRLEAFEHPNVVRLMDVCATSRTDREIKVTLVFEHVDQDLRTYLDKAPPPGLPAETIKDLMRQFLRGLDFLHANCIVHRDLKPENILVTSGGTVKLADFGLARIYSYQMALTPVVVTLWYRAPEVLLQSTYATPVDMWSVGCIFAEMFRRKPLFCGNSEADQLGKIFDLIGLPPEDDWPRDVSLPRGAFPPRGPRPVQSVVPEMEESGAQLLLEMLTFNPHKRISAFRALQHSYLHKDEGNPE
High affinity nerve growth factor receptor (Homo sapiens), sequence (P04629 33-796 limits assumed): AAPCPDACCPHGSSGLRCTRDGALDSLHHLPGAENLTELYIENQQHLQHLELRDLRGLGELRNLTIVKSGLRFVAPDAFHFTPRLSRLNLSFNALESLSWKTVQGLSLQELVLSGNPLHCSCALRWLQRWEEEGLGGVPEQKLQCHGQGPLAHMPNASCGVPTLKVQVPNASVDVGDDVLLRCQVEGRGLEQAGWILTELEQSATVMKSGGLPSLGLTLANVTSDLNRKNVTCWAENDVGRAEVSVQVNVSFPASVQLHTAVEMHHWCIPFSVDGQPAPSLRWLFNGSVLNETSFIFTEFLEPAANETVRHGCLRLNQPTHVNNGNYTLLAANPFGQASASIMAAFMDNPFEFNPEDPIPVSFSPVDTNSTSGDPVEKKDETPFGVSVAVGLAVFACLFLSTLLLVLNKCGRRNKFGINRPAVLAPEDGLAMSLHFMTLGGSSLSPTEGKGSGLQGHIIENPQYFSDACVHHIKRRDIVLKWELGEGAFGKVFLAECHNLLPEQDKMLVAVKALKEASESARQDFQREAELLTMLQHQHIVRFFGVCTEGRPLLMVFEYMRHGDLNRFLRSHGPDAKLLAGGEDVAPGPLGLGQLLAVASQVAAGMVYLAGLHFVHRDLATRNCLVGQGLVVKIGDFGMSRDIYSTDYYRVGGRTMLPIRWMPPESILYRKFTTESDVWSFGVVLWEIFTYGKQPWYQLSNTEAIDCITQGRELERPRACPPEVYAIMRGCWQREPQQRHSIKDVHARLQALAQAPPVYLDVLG
Serine/threonine-protein kinase 32B (Homo sapiens), sequence (Q9NY57 whole entry): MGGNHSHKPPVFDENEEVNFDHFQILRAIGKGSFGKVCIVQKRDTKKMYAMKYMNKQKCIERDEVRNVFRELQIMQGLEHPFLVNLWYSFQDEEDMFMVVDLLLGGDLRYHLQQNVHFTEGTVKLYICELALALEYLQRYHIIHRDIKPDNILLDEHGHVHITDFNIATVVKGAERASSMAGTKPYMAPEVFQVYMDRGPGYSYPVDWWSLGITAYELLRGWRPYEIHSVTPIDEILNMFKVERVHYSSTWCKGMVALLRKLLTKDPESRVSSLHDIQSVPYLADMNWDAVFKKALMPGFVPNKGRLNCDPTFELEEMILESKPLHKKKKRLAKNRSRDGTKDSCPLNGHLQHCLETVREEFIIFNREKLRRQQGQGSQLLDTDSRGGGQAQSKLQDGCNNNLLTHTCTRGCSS
Tau-tubulin kinase 1 (Homo sapiens), sequence (Q5TCY1 whole entry): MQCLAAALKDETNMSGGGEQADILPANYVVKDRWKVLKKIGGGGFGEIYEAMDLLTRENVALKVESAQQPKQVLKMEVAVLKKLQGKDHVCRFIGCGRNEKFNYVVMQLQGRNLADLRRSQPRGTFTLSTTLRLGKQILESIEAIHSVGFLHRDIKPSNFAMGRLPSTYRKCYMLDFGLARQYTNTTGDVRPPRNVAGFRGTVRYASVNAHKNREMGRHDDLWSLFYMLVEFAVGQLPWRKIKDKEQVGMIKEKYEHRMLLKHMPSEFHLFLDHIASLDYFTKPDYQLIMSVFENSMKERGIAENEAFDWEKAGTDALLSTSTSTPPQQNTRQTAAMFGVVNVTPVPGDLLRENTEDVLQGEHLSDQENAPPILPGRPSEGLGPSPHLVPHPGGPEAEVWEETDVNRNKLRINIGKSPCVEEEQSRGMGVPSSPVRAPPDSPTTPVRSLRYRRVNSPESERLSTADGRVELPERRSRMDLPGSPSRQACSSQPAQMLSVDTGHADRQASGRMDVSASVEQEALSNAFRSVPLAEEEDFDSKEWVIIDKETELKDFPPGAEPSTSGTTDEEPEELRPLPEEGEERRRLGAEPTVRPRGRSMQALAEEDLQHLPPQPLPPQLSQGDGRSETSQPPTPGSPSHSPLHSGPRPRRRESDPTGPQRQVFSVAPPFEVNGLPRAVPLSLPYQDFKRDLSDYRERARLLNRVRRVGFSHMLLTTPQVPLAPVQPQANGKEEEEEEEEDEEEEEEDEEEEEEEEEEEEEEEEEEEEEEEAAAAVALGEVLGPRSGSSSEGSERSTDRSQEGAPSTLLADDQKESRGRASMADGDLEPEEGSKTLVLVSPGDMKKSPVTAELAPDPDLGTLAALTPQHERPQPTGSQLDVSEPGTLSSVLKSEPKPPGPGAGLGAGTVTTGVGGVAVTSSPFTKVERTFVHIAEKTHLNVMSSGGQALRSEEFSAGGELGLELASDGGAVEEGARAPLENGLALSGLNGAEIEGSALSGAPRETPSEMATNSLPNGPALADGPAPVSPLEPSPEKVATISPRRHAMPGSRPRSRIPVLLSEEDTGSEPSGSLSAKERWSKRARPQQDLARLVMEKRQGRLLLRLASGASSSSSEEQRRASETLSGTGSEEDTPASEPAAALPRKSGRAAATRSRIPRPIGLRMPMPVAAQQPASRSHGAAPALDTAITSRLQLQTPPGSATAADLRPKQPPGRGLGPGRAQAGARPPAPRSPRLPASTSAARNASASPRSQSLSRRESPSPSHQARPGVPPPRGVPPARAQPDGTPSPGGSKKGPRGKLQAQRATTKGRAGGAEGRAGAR
SRSF protein kinase 1 (Homo sapiens), sequence (Q96SB4 whole entry): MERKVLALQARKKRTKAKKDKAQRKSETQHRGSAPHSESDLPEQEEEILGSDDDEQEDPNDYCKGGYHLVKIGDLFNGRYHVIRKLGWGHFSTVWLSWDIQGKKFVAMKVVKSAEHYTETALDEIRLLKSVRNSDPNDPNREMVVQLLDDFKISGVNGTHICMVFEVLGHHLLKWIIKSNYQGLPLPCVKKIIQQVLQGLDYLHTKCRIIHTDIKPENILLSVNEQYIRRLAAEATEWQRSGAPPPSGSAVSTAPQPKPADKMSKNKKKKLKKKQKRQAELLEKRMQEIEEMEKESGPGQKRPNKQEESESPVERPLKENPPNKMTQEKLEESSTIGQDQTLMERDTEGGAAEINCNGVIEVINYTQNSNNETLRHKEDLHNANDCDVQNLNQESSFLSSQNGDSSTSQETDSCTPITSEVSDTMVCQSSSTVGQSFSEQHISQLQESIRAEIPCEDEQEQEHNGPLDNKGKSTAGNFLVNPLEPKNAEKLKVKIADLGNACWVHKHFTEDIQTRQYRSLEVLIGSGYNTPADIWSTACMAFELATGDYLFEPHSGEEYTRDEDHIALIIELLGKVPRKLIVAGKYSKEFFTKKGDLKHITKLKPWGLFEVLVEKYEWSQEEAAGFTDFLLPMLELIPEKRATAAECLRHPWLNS
Death-associated protein kinase 1 (Homo sapiens), sequence (P53355 whole entry, looked up): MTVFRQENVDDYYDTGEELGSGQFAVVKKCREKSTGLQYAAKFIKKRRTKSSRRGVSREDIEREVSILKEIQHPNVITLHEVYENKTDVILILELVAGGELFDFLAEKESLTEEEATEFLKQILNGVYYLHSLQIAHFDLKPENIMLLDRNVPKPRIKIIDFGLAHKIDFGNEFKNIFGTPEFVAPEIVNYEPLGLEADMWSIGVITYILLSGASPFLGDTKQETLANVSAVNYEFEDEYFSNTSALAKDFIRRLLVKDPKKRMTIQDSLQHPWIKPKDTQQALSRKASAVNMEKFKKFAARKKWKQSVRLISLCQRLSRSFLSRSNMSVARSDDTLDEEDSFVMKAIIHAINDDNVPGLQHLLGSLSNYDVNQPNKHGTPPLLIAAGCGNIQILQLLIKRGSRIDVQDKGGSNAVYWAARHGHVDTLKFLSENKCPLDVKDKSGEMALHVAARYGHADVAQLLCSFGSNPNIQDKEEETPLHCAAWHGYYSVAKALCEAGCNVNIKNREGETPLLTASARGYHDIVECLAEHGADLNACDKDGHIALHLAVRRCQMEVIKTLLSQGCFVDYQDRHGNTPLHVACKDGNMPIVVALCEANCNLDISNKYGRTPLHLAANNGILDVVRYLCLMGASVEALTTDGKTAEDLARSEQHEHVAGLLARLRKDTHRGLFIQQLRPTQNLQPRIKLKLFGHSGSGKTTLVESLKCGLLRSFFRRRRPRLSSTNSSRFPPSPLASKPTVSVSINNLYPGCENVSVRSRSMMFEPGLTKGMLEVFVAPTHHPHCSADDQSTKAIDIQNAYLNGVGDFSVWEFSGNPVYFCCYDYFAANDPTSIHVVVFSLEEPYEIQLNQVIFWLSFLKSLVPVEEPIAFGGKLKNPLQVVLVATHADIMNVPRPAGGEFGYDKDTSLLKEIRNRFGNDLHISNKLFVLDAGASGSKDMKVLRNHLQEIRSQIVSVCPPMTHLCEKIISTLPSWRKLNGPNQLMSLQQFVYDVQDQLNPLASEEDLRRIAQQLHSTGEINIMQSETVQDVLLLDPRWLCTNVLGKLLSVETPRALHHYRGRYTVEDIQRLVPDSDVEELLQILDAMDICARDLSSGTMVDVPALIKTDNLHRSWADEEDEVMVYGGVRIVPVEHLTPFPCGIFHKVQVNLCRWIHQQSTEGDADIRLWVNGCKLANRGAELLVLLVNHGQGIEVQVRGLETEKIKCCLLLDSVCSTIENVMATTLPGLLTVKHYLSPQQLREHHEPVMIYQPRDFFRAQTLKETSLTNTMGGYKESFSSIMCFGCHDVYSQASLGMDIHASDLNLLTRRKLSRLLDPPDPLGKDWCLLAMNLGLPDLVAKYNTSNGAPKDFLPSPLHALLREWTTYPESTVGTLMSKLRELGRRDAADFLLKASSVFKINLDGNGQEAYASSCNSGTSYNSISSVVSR

- fold change (FC) [1]: 0
- inhibition [2]: 12%
- fold change (FC) [3]: 0.26
Compound: CNC(=O)c1ccccc1Oc1nc(Nc2cc(OC)c(OC)c(OC)c2)ncc1Br

- fold change (FC) [4]: 0.03
- inhibition [5]: 0%
- fold change (FC) [7]: 0
- fold change (FC) [8]: 0.13
- fold change (FC) [9]: 0.74
- fold change (FC) [10]: 0
- fold change (FC) [11]: 0
Compound: CC(C)[C@H](NC(=O)c1cc(-c2cnn3cc(-c4ccc(OCCN5CCCCC5)cc4)cnc23)cs1)C(F)(F)F
- fold change (FC) [6]: 0.05

- fold change (FC) [12]: 0.14
- fold change (FC) [13]: 0.04
- fold change (FC) [14]: 0
Compound: O=C(N[C@@H](C1CC1)C(F)(F)F)c1cc(-c2cnn3cc(-c4ccc(F)cc4)cnc23)cs1
